The test system of assay [1] is human melanoma cells (established and early passage patient-derived). Put plainly: Proliferation / colony formation of human melanoma cells. It is filed as cell-based. The settings on record: 10 to 50 μM. An excerpt: FIG. 2C is a series of images showing colony formation assays of established human melanoma and patient-derived early passage human melanoma cells treated with IVMT-Rx-3.
FIG. 2D is a series of histograms showing the number of colonies/plate in the colony formation assays described in FIG. 2C. NS: Not statistically significant; Statistically significant p<0.05.
FIG. 2E is a series of histograms showing the number of colonies/plate in colony formation assays of patient-derived early passage human melanoma cells treated with IVMT-Rx-3. NS: Not statistically significant; Statistically significant p<0.05.
The effect of IVMT-Rx-3 on primary normal human epidermal melanocyte cell growth and survival was determined after short term (24 hr., growth assays) (FIG. 2A) and long-term exposure (3-week, clonal assays) (FIG. 2B).

For assay [2], the system named is MMP-2 and MMP-9. Put plainly: MMP-2 and MMP-9 protein by Western blotting. The settings on record: Western blot; A-375, C8161.9, 24 hours; FIG. 4B. It counts as cell-based, human. On the procedure:
FIG. 4B is a Western blot of C8161.9 and A-375 cells treated with indicated doses of IVMT-Rx-3 for 24 hours. Cell lysates were subjected to Western blotting analysis to determine the expression levels of various signaling proteins (as shown) associated with MDA-9/Syntenin: Src interactions. Western blotting densitometry and relative intensity of protein bands were calculated using Image J software. The values are provided.
Western blotting was performed following a standard protocol as described previously (6,8,18,29). Antibodies used in this study were purchased from Cell Signaling Technology (Boston, MA): p-Src (Y416), total Src, matrix metalloproteinase-2 (MMP-2) and matrix metaloproteinase-9 (MMP-9), focal adhesion kinase (FAK), p IKKα/β (S176/180), total IKK, p P38 (T180/Y182) and total P38. MDA-9/Syntenin antibody was obtained from Abnova Inc. (Taiwan). β-actin (Sigma-Aldrich, St. Louis, MO) was used as an endogenous loading control. Fibronectin was purchased from EMD Millipore (Billerica, MA).

Assay [3] deals with T cell, MDSC and Treg populations. Put plainly: Flow cytometry of immune cells in lungs of B16-injected mice. It counts as in vivo, mouse. To be noted: 30 mg/kg I.P., 6 injections. An excerpt: FIG. 6B is a series of histograms showing the number of nodules/lung, T cell populations (CD8^+IFN-γ^+) and myeloid-derived suppressor cells (MDSCs) in the lungs of the treatment groups described in FIG. 6A, as measured by flow cytometry. *: Statistical significance (p<0.05);**: Statistical significance (p<0.01);***: Statistical significance (p<0.001). ****: Statistical significance (p<0.0001).
FIG. 15 is a histogram showing the comparative effect of DMSO and IVMT-Rx-3 on Treg populations, as measured by flow cytometry. 5×10^5 B16 cells were injected intravenously in C57BL/6 mice, and the mice were treated with DMSO control or IVMT-Rx-3 (intraperitoneal injection 30 mg/kg, 3× in a week, 6 injections in total). MDSC (Cd11^+Gr1^+) and Treg populations (CD4^+CD25^+[…]) in the lungs were measured by flow cytometry.
Single cells were isolated from lungs by digestion with collagenase D and DNAse I. Cells were stained with the corresponding antibodies and fluorescence signals were measured with a BD Fortessa flow cytometer (BD Biosciences, San Jose, CA). Data were analyzed further with FACs DIVA software (BD Biosciences, San Jose, CA) (18). The antibodies used in this study were CD3, Gr1, CD11b, IFN-γ, CD45, CD8 (Biolegend, San Diego, CA, USA). CD4 (BD Biosciences, San Jose, CA, USA), CD25, and FOXP3 (eBiosciences, CA, USA).
On the technique in general: In flow cytometry, cells or beads pass a laser one at a time.

Assay [4] concerns IGFBP-2. Put plainly: IGFBP-2 ELISA in conditioned media. It counts as cell-based, human. The settings on record: 10, 25 or 50 μM, 24 hr. As for the experimental part:
FIG. 5C is a series of histograms showing the amount of IGFBP-2 secreted from A-375, C8161.9, TPF-19-219, TPF-19-235, and TPF-16-238 cells treated with varying concentrations of IVMT-Rx-3, as measured by ELISA.
IGFBP-2 levels in conditioned media were determined using an IGFBP-2 ELISA kit (R&D systems, USA) according to the manufacturer's instructions (9). Each sample was repeated three times, and represented graphically with GraphPad Prism software.
Insulin Growth Factor Binding Protein-2 (IGFBP-2) has been found in higher levels in the serum of individuals with diverse types of pathological conditions and is very germane in the context of angiogenesis, tumor promotion and chemoresistance (33). Since Src activation is critical for IGFBP-2 induced angiogenesis, a potential suppressive function of IVMT-Rx-3 on IGFBP-2 expression levels was investigated (9). Melanoma cells were treated with different doses (10, 25 or 50 μM) of IVMT-Rx-3 for 24 hr. and levels of IGFBP-2 in the media were determined using ELISA (FIG. 5C). […] Blocking MDA-9/Syntenin expression inhibits the secretion of cytokines/growth factors in breast cancer resulting in the conversion of an immunosuppressive to immunostimulatory microenvironment (23). Accordingly, the level of specific melanoma metastasis-associated cytokines, e.g., IL-6, IL-10, IL-16, following treatment with IVMT-Rx-3 was analyzed. […]

Assay [5] relates to IL-6, IL-10, IL-16. Put plainly: IL-6, IL-10, IL-16 mRNA by semiquantitative RT-PCR, murine melanoma cells. It counts as cell-based, mouse. The settings on record: murine melanoma cells (B16). On the procedure: FIG. 14 is a series of histograms showing the IL-6, IL-10, and IL-16 mRNA fold change in RNA lysates prepared from A-375, C8161.9, and B16 cells treated with IVMT-Rx-3 at varying concentrations as indicated.
Total cellular RNA was extracted using an RNAeasy kit (Qiagen, Germany) as described previously (8,9). All Taqman probes used in this study were obtained from Applied Biosystems (Applied Biosystems, Foster City, CA). Real time PCR was performed using an ABI ViiA7 fast real-time PCR system (Applied Biosystems, Foster City, CA).

The values that follow come from US20260345798A1, “COMPOUNDS AND METHODS OF USE THEREOF” (Virginia Commonwealth University, priority 2023, published 2026).

Molecules are shown by their SMILES. Residues, ends and D or L forms follow the SMILES beside them.

As for `Cc1cc(NC(=O)c2nc3[nH]c4c(c(=O)n3n2)CCC4)c(C)cc1NC(=O)CCOCCC(=O)N[C@H](C(=O)N[C@@H](CC(N)=O)C(=O)N[C@@H](CCC(=O)O)C(=O)N[C@@H](Cc1ccc(O)cc1)C(=O)N[C@@H](Cc1ccc(O)cc1)C(=O)N[C@H](C(=O)O)C(C)C)[C@@H](C)O` [IVMT-Rx-3] (HELM PEPTIDE1{[Cc1cc(NC(=O)c2nc3[nH]c4c(c(=O)n3n2)CCC4)c(C)cc1NC(=O)CCOCCC(=O)[*:2]].T.N.E.Y.Y.V}$$$$V2.0), the “inhibition of proliferation or long-term survival” value in assay [1] is “did not inhibit proliferation or long-term survival”. For the same compound, the “MMP-2 and MMP-9 expression (translational level)” value in assay [2] is on record as “down regulation”. Also, in assay [3], the “IFN-γ-producing CD8+ T cell populations” value was “significant increase” and the MDSC populations entry is reported as “suppression of MDSCs”. In addition, the Treg population entry in assay [3] (5×10^5 B16 cells) is “no significant changes”. For the same compound, the “IGFBP-2 in tumor-derived media” value in assay [4] was “dose-dependent downregulation”. For the same compound, the “IL-6, IL-10, IL-16 expression” value in assay [5] is recorded as “Down-regulation”.
